The values that follow come from patent US20230062119A1, “USE OF BIOMARKERS IN IDENTIFYING PATIENTS THAT WILL BE RESPONSIVE TO TREATMENT WITH A PRMT5 INHIBITOR” (Merck Sharp & Dohme LLC, priority 2019, published 2023).

Assay [1] relates to symmetric dimethylation of arginine (SDMA) of PRMT5 substrates in MCF-7 cells. As to the kind of experiment: PRMT5 Cell Target Engagement (TE) Assay. Format: cell-based. Particulars: Homo sapiens, MCF7, 72 h, treated for 3 days, nuclear SDMA by high content imaging, top concentration 10000 nM. An excerpt: The PRMT5 TE assay is a biomarker assay for identifying compounds that inhibit symmetric dimethylation of arginine (SDMA) of PRMT5 substrates. The following substrates have been reported for PRMT5: Histone H2A and H4 R3, Histone H3 R2, Histone H3 R8, spliceosome Sm proteins, ribosomal protein RPS10, p53, FEN1, nucleoplasmin, nucleolin, EGFR and EBNA. The assay will focus on detecting symmetrically dimethylated nuclear proteins using high content imaging technology. Detection of the expression of symmetrically dimethylated nuclear proteins is through a mixture of primary rabbit monoclonal antibodies to SDMA (CST 13222), which in turn recognized by an Alexafluor 488 dye-conjugated anti-rabbit IgG secondary antibody. The IN Cell Analyzer 2200 or Opera-Phenix measures nuclear Alexafluor 488 fluorescent dye intensity that is directly related to the level of expression of symmetrically dimethylated nuclear proteins at the single cell level. Nuclear AF488 dye intensities are compared to the mean value for DMSO treated cells (MIN) to report percent of inhibition for each compound-treated well.
In this assay, the cell potency (EC50) of each compound was determined from a ten point (1:3 serial dilution; top compound concentration of 10000 nM) titration curve using the following outlined procedure. Each well of a BD falcon collagen coated black/clear bottom 384-well plate was seeded with 4000 MCF-7 cells in 30 μl media and allowed to attach for 5 hours. Media is ATCC-formulated Eagle's Minimum Essential Medium, Catalog No. 30-2003. The following components were added to the base medium: 0.01 mg/mL human recombinant insulin; fetal bovine serum to a final concentration of 10%. Additional 30 µl of media containing 2× compounds were added to each well. Cells were treated for 3 days in 37° C. CO2 incubator. On day 3, cells were fixed with Cytofix, permeabilized with 0.4% Triton-X-100/Cytofix, and washed with D-PBS without Ca/Mg. Cells were blocked with Licor Odessey blocking reagent for 1 hour at room temperature, followed by incubation with anti-SDMA (1:1000) antibody at 4° C. overnight. 1° antibody was removed, followed by three washings with DPBS without Ca/Mg and 0.05% Tween20. Hoechst (5 μg/mL), Cell Mask deep stain (1:2000) and Alexa488-conjugated goat anti-rabbit IgG (2 μg/mL) was added for 1 hour at room temperature. A final washing step (three washes) was performed before sealing plate for imaging on In Cell Analyzer 2200 or Opera-Phenix. Images from analyzer were uploaded to Columbus for image analysis. IC50 values were determined by 4 parameters robust fit of percent fluorescence units vs. (Log 10) compound concentrations.

The target of assay [2] is T1, Full-length (FL)-PRMT5-MEP50 enzyme complex (Homo sapiens, UniProt O14744).
T1 construct: Full-length (FL)-PRMT5-MEP50 enzyme complex (recombinant proteins from baculovirus-transfected Sf21 cells: FL-PRMT5; MW=73837 kDa and FL-MEP50; MW=38614); made in house; host or cells: baculovirus-transfected Sf21 insect cells
T1 sequence (O14744 whole entry): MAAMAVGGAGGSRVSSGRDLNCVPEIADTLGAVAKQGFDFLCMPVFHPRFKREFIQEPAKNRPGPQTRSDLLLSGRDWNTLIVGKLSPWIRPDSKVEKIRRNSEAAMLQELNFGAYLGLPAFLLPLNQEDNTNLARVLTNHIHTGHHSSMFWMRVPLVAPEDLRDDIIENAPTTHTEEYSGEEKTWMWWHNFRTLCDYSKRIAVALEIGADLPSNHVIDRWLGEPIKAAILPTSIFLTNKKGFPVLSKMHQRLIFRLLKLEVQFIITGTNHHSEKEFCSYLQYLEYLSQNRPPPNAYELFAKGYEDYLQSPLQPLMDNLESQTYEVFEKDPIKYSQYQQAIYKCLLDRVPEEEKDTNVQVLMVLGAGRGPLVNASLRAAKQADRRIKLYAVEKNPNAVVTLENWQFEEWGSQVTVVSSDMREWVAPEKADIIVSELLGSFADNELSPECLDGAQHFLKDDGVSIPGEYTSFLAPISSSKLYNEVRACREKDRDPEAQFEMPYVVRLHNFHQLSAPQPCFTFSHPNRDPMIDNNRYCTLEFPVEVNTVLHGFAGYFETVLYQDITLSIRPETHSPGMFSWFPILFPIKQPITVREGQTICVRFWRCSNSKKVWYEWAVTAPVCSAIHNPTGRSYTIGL
T1 sequence (Q9BQA1 whole entry partner): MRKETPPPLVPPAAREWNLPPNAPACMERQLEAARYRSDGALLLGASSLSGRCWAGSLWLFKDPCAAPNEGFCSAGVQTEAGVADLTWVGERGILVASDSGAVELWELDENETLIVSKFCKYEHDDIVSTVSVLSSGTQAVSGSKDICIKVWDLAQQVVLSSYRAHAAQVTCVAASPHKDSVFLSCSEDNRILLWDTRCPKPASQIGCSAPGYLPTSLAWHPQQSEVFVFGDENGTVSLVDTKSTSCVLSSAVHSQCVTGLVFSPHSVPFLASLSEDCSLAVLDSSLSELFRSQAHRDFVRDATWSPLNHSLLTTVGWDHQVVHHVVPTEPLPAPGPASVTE
The assay is described as follows: PRMT5-MEP50 Enzyme Methylation Assay. Format: biochemical. Particulars: 1.0 nM PRMT5-MEP50, 75 nM biotinylated peptide, 15 μM SAM. Put shortly:
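Compound was pre-incubated 60 min at 37°C with 1.0 nM enzyme and 15 μM SAM (final) in 50 mM Bicine pH 8.0, then 75 nM biotinylated H4R3(Me1) peptide was added and reacted 150 min; twenty-point 1:2 titration from 100000 nM, 1% DMSO. Formic acid quench; SAMDI mass spectrometry measured Me1-to-Me2 conversion, EC50 by 4- or 7-parameter regression.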

[3] abbreviates: one EC50: 4 parameters single site sigmoidal model, EC50 1: first value of 7 parameters biphasic model, read-out: Enzyme Methylation Assay (EC50 or EC50 1).

pEC50: −log10 of the molar value. Counter-ions that a name gives are not always drawn. Like-named read-outs stand apart in the source and are kept apart here.

In the case of `Nc1nc2cc(O[C@H]3CC[C@@]4(O)[C@@H]3O[C@@H](n3ccc5c(C(F)F)ncnc53)[C@@H]4O)ccc2cc1Br` [Example 79, (2R,3R,3aS,6S,6aR)-6-((2-amino-3-bromoquinolin-7-yl)oxy)-2-(4-(difluoromethyl)-7H-pyrrolo[2,3-d]pyrimidin-7-yl)hexahydro-3aH-cyclopenta[b]furan-3,3a-diol], the figures for the pEC50 in assay [1] and in assay [2] (setting [3]) were 7.28 and 8.54, respectively.
Regarding `CCc1ncnc2c1ccn2[C@@H]1O[C@@H]2[C@@H](Oc3ccc4cc(Br)c(N)nc4c3)CC[C@]2(O)[C@H]1O` [Example 82, 2,2,2-trifluoroacetate], the pEC50 in assay [1] was 7.06; in assay [2] (setting [3]), 9.15; in assay [2] (second EC50 of 7 parameters biphasic model, read-out: Enzyme Methylation Assay (EC50 2)) it was 7.12.
As to `Nc1nc2cc(CC[C@]3(CF)C[C@@H](n4ccc5c(N)ncnc54)[C@H](O)[C@@H]3O)ccc2cc1Br` [Example 102, (1S,2R,5R)-3-(2-(2-amino-3-bromoquinolin-7-yl)ethyl)-5-(4-amino-7H-pyrrolo[2,3-d]pyrimidin-7-yl)-3-(fluoromethyl)cyclopentane-1,2-diol], the pEC50 in assay [1] is 8.70; in assay [2] (setting [3]), 9.52.
In the case of `Nc1ncc2ccn([C@@H]3O[C@@H]4[C@@H](Oc5ccc6cc(Br)c(N)nc6c5)CC[C@]4(O)[C@H]3O)c2n1` [compound 46, (2R,3R,3aS,6S,6aR)-6-((2-amino-3-bromoquinolin-7-yl)oxy)-2-(2-amino-7H-pyrrolo[2,3-d]pyrimidin-7-yl)hexahydro-3aH-cyclopenta[b]furan-3,3a-diol dihydrochloride], the pEC50 is 7.77 in assay [1] and 9.30 in assay [2] (setting [3]).

For orientation: pEC50 means the negative decadic logarithm of the EC50, by convention in mol/L.
